For assay [1], the target named is T1, CRIP2 (also known as heart LIM protein (Hlp)) (Mus musculus, UniProt Q9DCT8).
T1 sequence (Q9DCT8 1-208): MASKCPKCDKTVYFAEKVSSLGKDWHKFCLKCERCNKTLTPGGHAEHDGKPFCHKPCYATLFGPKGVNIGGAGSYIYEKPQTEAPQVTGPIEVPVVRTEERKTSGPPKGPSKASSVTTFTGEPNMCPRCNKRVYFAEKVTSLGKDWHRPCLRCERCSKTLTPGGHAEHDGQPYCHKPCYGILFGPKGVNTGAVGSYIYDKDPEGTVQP
The settings on record: Zhang et al., Circulation 2005; cited from earlier work.

In assay [2] the test system is hESCs. In words: Binding and internalization of mouse selected peptide phage into hESCs. Format: cell-based, human. Conditions: subpopulation of hESCs.
For assay [3], the system named is adult heart capillaries and endocardium. The settings on record: Zhang et al., Circulation 2005; cited from earlier work.

With CRPPR*, the “Binding to CRIP2” value in assay [1] is listed as “binds to CRIP2”. Moreover, in assay [2], the “Binding and internalization into hESCs” value is “binds and internalizes into a subpopulation of hESCs”. Moreover, in assay [3], the “Binding to adult heart capillaries and endocardium” value was “known to bind to adult heart capillaries and endocardium”.

(Values after patent publication US20090215640A1, “METHODS FOR IDENTIFYING LIGANDS FOR STEM CELLS AND CELLS DERIVED THEREFROM” (priority 2005, published 2009).)
